In US20120115852A1, “HETEROCYCLIC COMPOUNDS AS AUTOTAXIN INHIBITORS” (Merck Patent Gesellschaft Mit Beschrankter Haftung, priority 2009, published 2012) one finds remaining activity and IC50 data, which are given here for 23 molecules.

For the test, the target named is T1, recombinant autotaxin (Homo sapiens, UniProt Q13822).
T1 construct: made in house; host or cells: Hi5 insect cells (baculovirus)
Nature of the test: Autotaxin test (enzyme test), Amplex Red fluorescence with LPC substrate. Type of test: biochemical. Particulars: autotaxin inhibition (enzyme test); for remaining activity at 10 µM: 10 μM compound, read-out: % Control at 10 μM. In short, it runs like this: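 Activity was inferred from H2O2 made from released choline, detected as Amplex Red/peroxidase fluorescence (485 nm excitation, 612 nm emission, kinetic read). Beforehand, Hi5-expressed autotaxin sat with compound 30 min at 22° C, then hydrolysed 75 μM final LPC for 90 min at 37° C, pH 8 Tris buffer.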

For `O=C1Nc2ccc(-c3ccc(Cl)cc3F)cc2C(=O)N2CCN(C(=O)[C@@H]3CCCN3C3CCNCC3)CC12` (stereo partly drawn) [Compound A99, 7-(4-Chloro-2-fluorophenyl)-2-((S)-1-piperidin-4-yl-pyrrolidine-2-carbonyl)-1,3,4,11a-tetrahydro-2H,10H-2,4a,10-triazadibenzo[a,d]cycloheptene-5,11-dione], the remaining activity at 10 µM came out at 19% and the IC50 was over 1 µM.

Turning to `CC(C)(C)CC(=O)N1CCN2C(=O)c3cc(-c4ccc(Cl)cc4F)ccc3NC(=O)[C@H]2C1` [Compound A100, (R)-7-(4-Chloro-2-fluorophenyl)-2-(3,3-dimethyl-butyryl)-1,3,4,11a-tetrahydro-2H,10H-2,4a,10-triazadibenzo[a,d]cycloheptene-5,11-dione], the remaining activity at 10 µM is 11% and the IC50 is over 1 µM.

As to `Cc1ccc(-c2ccc3c(c2)C(=O)N2CCN(C(=O)[C@@H]4CCCN4C4CCNCC4)C[C@@H]2C(=O)N3)c(F)c1F` [Compound A101, (R)-7-(2,3-Difluoro-4-methylphenyl)-2-((S)-1-piperidin-4-ylpyrrolidine-2-carbonyl)-1,3,4,11a-tetrahydro-2H,10H-2,4a,10-triaza-dibenzo[a,d]cycloheptene-5,11-dione], the remaining activity at 10 µM was determined as 8% and the IC50 fell in the range of 0.1 to 1 µM.

Turning to `O=C1Nc2ccc(-c3ccc(Cl)c(F)c3)cc2C(=O)N2CCN(C(=O)[C@@H]3CCCN3C3CCNCC3)C[C@H]12` [Compound A102, (R)-7-(4-Chloro-3-fluorophenyl)-2-((S)-1-piperidin-4-ylpyrrolidine-2-carbonyl)-1,3,4,11a-tetrahydro-2H,10H-2,4a,10-triazadibenzo[a,d]cycloheptene-5,11-dione], the remaining activity at 10 µM came out at 7% and the IC50 was 0.1 to 1 µM.

As to `CC(C)(C)CC(=O)N1CCN2C(=O)c3cc(-c4ccccc4Cl)ccc3NC(=O)C2C1` (stereo not drawn) [Compound A103, 7-(2-Chlorophenyl)-2-(3,3-dimethylbutyryl)-1,3,4,11a-tetrahydro-2H,10H-2,4a,10-triaza-dibenzo[a,d]cycloheptene-5,11-dione], the remaining activity at 10 µM was -10% and the IC50 was over 1 µM.

In the case of `CC(C)(C)CC(=O)N1CCN2C(=O)c3cc(-c4ccc(Cl)c(Cl)c4)ccc3NC(=O)C2C1` (stereo not drawn) [Compound A104, 7-(3,4-Dichlorophenyl)-2-(3,3-dimethylbutyryl)-1,3,4,11a-tetrahydro-2H,10H-2,4a,10-triaza-dibenzo[a,d]cycloheptene-5,11-dione], the remaining activity at 10 µM was -13% and the IC50 lay in the range of 0.1 to 1 µM.

`Cc1ccc(-c2ccc3c(c2)C(=O)N2CCN(C(=O)CC(C)(C)C)CC2C(=O)N3)cc1` (stereo not drawn) [Compound A105, 2-(3,3-Dimethylbutyryl)-7-p-tolyl-1,3,4,11a-tetrahydro-2H,10H-2,4a,10-triaza-dibenzo[a,d]cycloheptene-5,11-dione]: the remaining activity at 10 µM stood at 22% and the IC50 was over 1 µM.

As for `O=C1Nc2ccc(-c3ccc(Cl)cc3)cc2C(=O)N2CCN(C(=O)C3(c4ccccc4)CCCC3)CC12` (stereo not drawn) [Compound A106, 7-(4-Chlorophenyl)-2-(1-phenylcyclopentane-carbonyl)-1,3,4,11a-tetrahydro-2H,10H-2,4a,10-triazadibenzo[a,d]cycloheptene-5,11-dione], the remaining activity at 10 µM is -37% and the IC50 fell in the range of 0.1 to 1 µM.

With `CN1CCC(C)(C(=O)N2CCN3C(=O)c4cc(-c5ccc(Cl)cc5)ccc4NC(=O)C3C2)CC1` (stereo not drawn) [Compound A107, 7-(4-Chlorophenyl)-2-(1,4-dimethylpiperidine-4-carbonyl)-1,3,4,11a-tetrahydro-2H,10H-2,4a,10-triazadibenzo[a,d]cycloheptene-5,11-dione], the remaining activity at 10 µM came to 51% and the IC50 is over 1 µM.

Consider `Cn1cc(-c2ccc3c(c2)C(=O)N2CCN(C(=O)CC(C)(C)C)CC2C(=O)N3)cn1` (stereo not drawn) [Compound A108, 2-(3,3-Dimethylbutyryl)-7-(1-methyl-1H-pyrazol-4-yl)-1,3,4,11a-tetrahydro-2H,10H-2,4a,10-triaza-dibenzo[a,d]cycloheptene-5,11-dione], for which the remaining activity at 10 µM was 90%.

Take `CC(C)(C)C(=O)N1CCN2C(=O)c3cc(-c4ccc(Cl)cc4)ccc3NC(=O)C2C1` (stereo not drawn) [Compound A109, 7-(4-Chlorophenyl)-2-(2,2-dimethylpropionyl)-1,3,4,11a-tetrahydro-2H,10H-2,4a,10-triaza-dibenzo[a,d]cycloheptene-5,11-dione]: the remaining activity at 10 µM was -21% and the IC50 is over 1 µM.

As for `O=C1Nc2ccc(-c3ccc(Cl)cc3)cc2C(=O)N2CCN(C(=O)C3CCCN3C(=O)c3ccncc3)CC12` (stereo not drawn) [Compound A110, 7-(4-Chlorophenyl)-2-[1-(pyridine-4-carbonyl)-pyrrolidine-2-carbonyl]-1,3,4,11a-tetrahydro-2H,10H-2,4a,10-triazadibenzo[a,d]cycloheptene-5,11-dione], the remaining activity at 10 µM turned out to be 51% and the IC50 is over 1 µM.

On to `O=C1Nc2ccc(-c3ccc(Cl)cc3)cc2C(=O)N2CCN(C(=O)C3CCCN3C(=O)Nc3ccc(Cl)cc3)CC12` (stereo not drawn) [Compound A111, N-(4-Chlorophenyl)-2-[7-(4-chlorophenyl)-5,11-dioxo-3,4,5,10,11,11a-hexahydro-1H-2,4a,10-triaza-dibenzo[a,d]cycloheptene-2-carbonyl]pyrrolidine-1-carboxamide], for which the remaining activity at 10 µM stood at 3% and the IC50 is over 1 µM.

Consider `O=C1Nc2ccc(-c3ccc(Cl)cc3)cc2C(=O)N2CCN(C(=O)[C@H](O)C3CCCCC3)CC12` (stereo partly drawn) [Compound A112, 7-(4-Chlorophenyl)-2-((R)-2-cyclohexyl-2-hydroxy-acetyl)-1,3,4,11a-tetrahydro-2H,10H-2,4a,10-triazadibenzo[a,d]cycloheptene-5,11-dione], for which the remaining activity at 10 µM came to 5% and the concentration for half-maximal inhibition (IC50) is over 1 µM.

As to `O=C1Nc2ccc(-c3ccc(Cl)cc3)cc2C(=O)N2CCN(C(=O)[C@@H](O)C3CCCCC3)CC12` (stereo partly drawn) [Compound A113, 7-(4-Chlorophenyl)-2-((S)-2-cyclohexyl-2-hydroxy-acetyl)-1,3,4,11a-tetrahydro-2H,10H-2,4a,10-triazadibenzo[a,d]cycloheptene-5,11-dione], the remaining activity at 10 µM is -6% and the half-maximal inhibitory concentration (IC50) is over 1 µM.

With `O=C1Nc2ccc(-c3ccc(Cl)cc3)cc2C(=O)N2CCN(C(=O)[C@@H]3CCCN3)CC12` (stereo partly drawn) [Compound A114, 7-(4-Chlorophenyl)-2-((S)-pyrrolidine-2-carbonyl)-1,3,4,11a-tetrahydro-2H,10H-2,4a,10-triaza-dibenzo[a,d]cycloheptene-5,11-dione], the remaining activity at 10 µM turned out to be 28% and the IC50 is over 1 µM.

`CN(C)CCN1CCC[C@H]1C(=O)N1CCN2C(=O)c3cc(-c4ccc(Cl)cc4F)ccc3NC(=O)C2C1` (stereo partly drawn) [Compound A115, 7-(4-Chloro-2-fluorophenyl)-2-[(S)-1-(2-dimethyl-aminoethyl)pyrrolidine-2-carbonyl]-1,3,4,11a-tetrahydro-2H,10H-2,4a,10-triaza-dibenzo[a,d]cycloheptene-5,11-dione]: the remaining activity at 10 µM came out at 80% and the concentration for half-maximal inhibition (IC50) was over 1 µM.

With `CC(=O)N1CCN2C(=O)c3cc(-c4ccc(Cl)cc4F)ccc3NC(=O)[C@H]2C1` [Compound A116, (R)-2-Acetyl-7-(4-chloro-2-fluorophenyl)-1,3,4,11a-tetrahydro-2H,10H-2,4a,10-triaza-dibenzo[a,d]cycloheptene-5,11-dione], the remaining activity at 10 µM is 71% and the IC50 was over 1 µM.

Take `O=C1Nc2ccc(-c3ccc(Cl)cc3F)cc2C(=O)N2CCN(C(=O)[C@@H]3CCCN3C3CCNCC3)C[C@H]12` [Compound A117, (R)-7-(4-Chloro-2-fluorophenyl)-2-((S)-1-piperidin-4-ylpyrrolidine-2-carbonyl)-1,3,4,11a-tetrahydro-2H,10H-2,4a,10-triazadibenzo[a,d]cycloheptene-5,11-dione]: the remaining activity at 10 µM is 16% and the IC50 was over 1 µM.

On to `CN1CCC(N2CCC[C@H]2C(=O)N2CCN3C(=O)c4cc(-c5ccc(Cl)cc5F)ccc4NC(=O)[C@H]3C2)CC1` [Compound A118, (R)-7-(4-Chloro-2-fluorophenyl)-2-[(S)-1-(1-methylpiperidin-4-yl)pyrrolidine-2-carbonyl]-1,3,4,11a-tetrahydro-2H,10H-2,4a,10-triaza-dibenzo[a,d]cycloheptene-5,11-dione], for which the remaining activity at 10 µM worked out at 8% and the IC50 was 0.1 to 1 µM.

Regarding `NCCN1CCC[C@H]1C(=O)N1CCN2C(=O)c3cc(-c4ccc(Cl)cc4F)ccc3NC(=O)[C@H]2C1` [Compound A119, (R)-2-[(S)-1-(2-Aminoethyl)pyrrolidine-2-carbonyl]-7-(4-chloro-2-fluorophenyl)-1,3,4,11a-tetrahydro-2H,10H-2,4a,10-triazadibenzo[a,d]cycloheptene-5,11-dione], the remaining activity at 10 µM turned out to be 45% and the half-inhibitory concentration (IC50) is over 1 µM.

In the case of `O=C1Nc2ccc(-c3ccc(Cl)cc3F)cc2C(=O)N2CCN(C(=O)[C@@H]3CCCN3C3CCOCC3)C[C@H]12` [Compound A120, (R)-7-(4-Chloro-2-fluorophenyl)-2-[(S)-1-(tetrahydro-pyran-4-yl)pyrrolidine-2-carbonyl]-1,3,4,11a-tetra-hydro-2H,10H-2,4a,10-triazadibenzo[a,d]-cycloheptene-5,11-dione], the remaining activity at 10 µM worked out at 8% and the IC50 was 0.1 to 1 µM.

On to `O=C1Nc2ccc(-c3ccc(Cl)cc3F)cc2C(=O)N2CCN(C(=O)[C@@H]3CCCN3C3CCCCC3)C[C@H]12` [Compound A121, (R)-7-(4-Chloro-2-fluorophenyl)-2-((S)-1-cyclohexyl-pyrrolidine-2-carbonyl)-1,3,4,11a-tetrahydro-2H,10H-2,4a,10-triazadibenzo[a,d]cycloheptene-5,11-dione], for which the remaining activity at 10 µM came out at 32% and the IC50 was over 1 µM.

As usually defined, the IC50 is the concentration needed to halve the response being measured.
